Among the data in ChEMBL document CHEMBL1129924, “Synthesis and biological activity of cyclic analogues of MPPG and MCPG as metabotropic glutamate receptor antagonists” (Bioorg Med Chem Lett, 1997) are IC50 values, retold here.

Format in all cases: functional
The target of assay [1] is Metabotropic glutamate receptor 2 (Rattus norvegicus, UniProt P31421). The experiment in a line: Antagonistic activity against Metabotropic glutamate receptor 2 was determined.
In assay [2] the target is T1, Metabotropic glutamate receptor 5 (Rattus norvegicus, UniProt P31424). The experiment in a line: Antagonistic activity against Metabotropic glutamate receptor 5 was determined.
T1 sequence (P31424 whole entry): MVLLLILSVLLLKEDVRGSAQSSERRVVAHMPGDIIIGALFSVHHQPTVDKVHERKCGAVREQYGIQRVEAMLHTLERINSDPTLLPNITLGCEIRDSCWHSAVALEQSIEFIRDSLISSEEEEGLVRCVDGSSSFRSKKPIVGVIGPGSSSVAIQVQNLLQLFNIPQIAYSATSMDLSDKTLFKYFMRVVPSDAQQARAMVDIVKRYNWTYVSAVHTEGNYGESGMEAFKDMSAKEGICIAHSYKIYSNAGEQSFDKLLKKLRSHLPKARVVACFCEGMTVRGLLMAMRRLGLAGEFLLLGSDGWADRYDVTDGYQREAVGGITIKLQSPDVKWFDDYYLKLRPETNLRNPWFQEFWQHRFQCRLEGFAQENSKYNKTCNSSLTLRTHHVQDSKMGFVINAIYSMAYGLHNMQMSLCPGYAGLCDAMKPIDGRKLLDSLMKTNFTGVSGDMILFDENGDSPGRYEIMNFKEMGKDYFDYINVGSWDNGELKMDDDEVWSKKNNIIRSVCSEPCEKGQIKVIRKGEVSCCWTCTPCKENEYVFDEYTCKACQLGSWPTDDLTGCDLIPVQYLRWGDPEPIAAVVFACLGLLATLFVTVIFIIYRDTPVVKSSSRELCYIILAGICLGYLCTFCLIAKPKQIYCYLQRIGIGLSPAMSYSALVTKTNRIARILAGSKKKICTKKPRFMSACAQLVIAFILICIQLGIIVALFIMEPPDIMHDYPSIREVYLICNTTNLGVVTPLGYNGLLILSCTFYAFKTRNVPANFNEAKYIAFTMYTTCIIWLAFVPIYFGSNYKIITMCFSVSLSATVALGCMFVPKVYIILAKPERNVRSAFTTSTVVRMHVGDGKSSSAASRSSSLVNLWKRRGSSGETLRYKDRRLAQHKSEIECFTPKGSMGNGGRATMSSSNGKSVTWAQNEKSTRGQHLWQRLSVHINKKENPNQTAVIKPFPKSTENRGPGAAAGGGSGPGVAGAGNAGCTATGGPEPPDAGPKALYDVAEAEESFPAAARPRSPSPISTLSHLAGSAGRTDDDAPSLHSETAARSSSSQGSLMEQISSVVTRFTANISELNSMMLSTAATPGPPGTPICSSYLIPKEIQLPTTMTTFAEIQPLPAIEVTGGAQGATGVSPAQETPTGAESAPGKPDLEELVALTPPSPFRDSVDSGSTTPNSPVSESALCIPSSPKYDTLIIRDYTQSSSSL
The target of assay [3] is Metabotropic glutamate receptor 6 (Rattus norvegicus, UniProt P35349). The experiment in a line: Antagonistic activity against Metabotropic glutamate receptor 6 was determined at 1 mM; NE = No significant effect observed.
Chain of Metabotropic glutamate receptor 6 (P35349 whole entry): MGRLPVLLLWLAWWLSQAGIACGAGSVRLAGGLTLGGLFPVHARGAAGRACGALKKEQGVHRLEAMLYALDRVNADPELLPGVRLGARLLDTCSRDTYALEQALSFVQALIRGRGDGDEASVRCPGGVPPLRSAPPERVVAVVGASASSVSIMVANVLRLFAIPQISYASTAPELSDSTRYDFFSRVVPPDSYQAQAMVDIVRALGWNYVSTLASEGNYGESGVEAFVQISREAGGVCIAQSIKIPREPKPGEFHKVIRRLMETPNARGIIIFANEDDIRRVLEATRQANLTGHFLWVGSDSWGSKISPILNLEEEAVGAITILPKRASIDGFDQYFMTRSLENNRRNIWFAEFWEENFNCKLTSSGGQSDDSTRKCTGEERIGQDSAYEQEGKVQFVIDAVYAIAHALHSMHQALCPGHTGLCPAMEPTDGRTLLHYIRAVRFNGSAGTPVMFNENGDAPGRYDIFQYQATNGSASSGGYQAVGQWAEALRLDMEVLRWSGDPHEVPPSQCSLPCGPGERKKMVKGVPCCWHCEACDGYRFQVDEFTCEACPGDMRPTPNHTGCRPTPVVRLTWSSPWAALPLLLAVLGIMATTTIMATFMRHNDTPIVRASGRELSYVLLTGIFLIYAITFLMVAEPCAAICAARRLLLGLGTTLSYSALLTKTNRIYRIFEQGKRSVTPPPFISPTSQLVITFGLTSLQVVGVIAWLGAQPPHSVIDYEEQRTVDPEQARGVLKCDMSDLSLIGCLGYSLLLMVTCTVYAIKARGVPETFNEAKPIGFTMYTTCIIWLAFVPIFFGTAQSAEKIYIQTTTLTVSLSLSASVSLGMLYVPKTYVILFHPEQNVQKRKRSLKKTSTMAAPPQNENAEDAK
Assay [4] concerns the target T2, Metabotropic glutamate receptor 1 (Rattus norvegicus, UniProt P23385). The experiment in a line: Antagonistic activity against Metabotropic glutamate receptor 1 was determined.
Assay [5] addresses T2, Metabotropic glutamate receptor 1. The experiment in a line: Antagonistic activity against Metabotropic glutamate receptor 1 was determined at 1 mM; NE = No significant effect observed.
The target of assay [6] is T1, Metabotropic glutamate receptor 5. The experiment in a line: Antagonistic activity against Metabotropic glutamate receptor 5 was determined at 1 mM; NE = No significant effect observed.

Chain of Metabotropic glutamate receptor 2 (P31421 whole entry): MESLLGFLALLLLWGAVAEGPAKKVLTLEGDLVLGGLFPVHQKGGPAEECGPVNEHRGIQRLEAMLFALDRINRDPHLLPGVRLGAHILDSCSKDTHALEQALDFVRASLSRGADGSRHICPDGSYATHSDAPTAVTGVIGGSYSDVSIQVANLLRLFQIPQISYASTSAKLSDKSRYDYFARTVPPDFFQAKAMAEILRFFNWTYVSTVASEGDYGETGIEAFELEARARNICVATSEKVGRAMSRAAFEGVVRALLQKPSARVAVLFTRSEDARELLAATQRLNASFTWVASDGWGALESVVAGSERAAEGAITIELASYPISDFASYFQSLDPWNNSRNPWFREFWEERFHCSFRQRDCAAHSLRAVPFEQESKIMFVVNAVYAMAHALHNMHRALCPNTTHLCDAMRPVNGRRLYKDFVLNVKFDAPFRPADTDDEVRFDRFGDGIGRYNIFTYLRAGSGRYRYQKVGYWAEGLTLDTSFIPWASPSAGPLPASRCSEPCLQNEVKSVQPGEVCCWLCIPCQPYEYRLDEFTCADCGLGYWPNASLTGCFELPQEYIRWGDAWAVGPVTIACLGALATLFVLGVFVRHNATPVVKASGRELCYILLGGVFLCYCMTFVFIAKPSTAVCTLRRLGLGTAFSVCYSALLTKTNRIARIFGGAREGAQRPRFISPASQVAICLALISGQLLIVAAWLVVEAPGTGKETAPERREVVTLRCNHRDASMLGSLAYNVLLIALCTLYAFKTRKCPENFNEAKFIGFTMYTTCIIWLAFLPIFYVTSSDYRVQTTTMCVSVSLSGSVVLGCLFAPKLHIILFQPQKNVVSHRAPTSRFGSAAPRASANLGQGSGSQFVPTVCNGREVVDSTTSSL
T2 sequence (P23385 whole entry): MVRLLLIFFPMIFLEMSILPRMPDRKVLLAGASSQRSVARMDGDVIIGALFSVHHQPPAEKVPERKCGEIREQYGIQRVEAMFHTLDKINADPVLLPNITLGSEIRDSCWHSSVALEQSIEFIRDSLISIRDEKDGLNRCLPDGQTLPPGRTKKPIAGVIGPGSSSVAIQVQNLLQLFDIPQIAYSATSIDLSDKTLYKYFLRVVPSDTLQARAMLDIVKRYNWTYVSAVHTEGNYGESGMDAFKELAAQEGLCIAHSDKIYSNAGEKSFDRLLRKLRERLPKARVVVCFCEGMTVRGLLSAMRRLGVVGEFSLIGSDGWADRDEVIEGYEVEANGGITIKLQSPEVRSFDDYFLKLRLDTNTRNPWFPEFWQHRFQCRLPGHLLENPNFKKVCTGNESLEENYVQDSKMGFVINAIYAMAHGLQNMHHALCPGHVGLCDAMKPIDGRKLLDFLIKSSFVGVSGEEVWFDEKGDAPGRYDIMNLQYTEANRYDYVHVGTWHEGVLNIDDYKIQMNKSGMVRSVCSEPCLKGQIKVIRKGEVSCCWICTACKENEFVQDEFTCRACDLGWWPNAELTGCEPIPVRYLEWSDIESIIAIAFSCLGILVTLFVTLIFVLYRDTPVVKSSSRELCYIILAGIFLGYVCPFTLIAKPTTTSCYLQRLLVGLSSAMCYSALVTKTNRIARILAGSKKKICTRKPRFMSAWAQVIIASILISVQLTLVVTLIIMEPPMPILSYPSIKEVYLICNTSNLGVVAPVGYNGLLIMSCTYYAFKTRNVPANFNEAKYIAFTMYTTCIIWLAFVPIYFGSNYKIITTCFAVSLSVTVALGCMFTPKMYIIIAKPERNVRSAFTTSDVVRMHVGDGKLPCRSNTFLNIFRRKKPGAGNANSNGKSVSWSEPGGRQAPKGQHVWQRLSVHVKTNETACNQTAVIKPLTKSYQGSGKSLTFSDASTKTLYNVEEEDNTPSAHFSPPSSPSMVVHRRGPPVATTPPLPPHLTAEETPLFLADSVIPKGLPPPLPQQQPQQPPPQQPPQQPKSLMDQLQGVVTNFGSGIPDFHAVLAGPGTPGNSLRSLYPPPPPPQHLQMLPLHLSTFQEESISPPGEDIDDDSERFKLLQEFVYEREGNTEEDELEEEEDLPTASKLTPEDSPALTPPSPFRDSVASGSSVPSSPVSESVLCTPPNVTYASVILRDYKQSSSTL

Turning to `CC1(C)CC(N)(C(=O)O)c2ccc(C(=O)O)cc2O1` (stereo not drawn), the IC50 in assay [1] was 43 µM; in assay [2] it was 355 µM; in assay [3] it was “No effect”; in assay [4] it was 93 µM.
As for `NC1(C(=O)O)CCc2cc(P(=O)(O)O)ccc21` (stereo not drawn), the half-maximal inhibitory concentration (IC50) in assay [1] was 30 µM; in assay [5], “No effect”; in assay [3] it was “No effect”; in assay [6], “No effect”.
